In publication PMC4960487, “Discovery and characterization of novel small-molecule CXCR4 receptor agonists and antagonists” (Scientific Reports, 2016):

These substances were tested against CXCR4 (Homo sapiens, UniProt P61073) (assay: fura-2 calcium mobilization in C8161 melanoma cells, antagonism of SDF-1).
Assay type: cell-based

Sequence of CXCR4 (P61073 whole entry): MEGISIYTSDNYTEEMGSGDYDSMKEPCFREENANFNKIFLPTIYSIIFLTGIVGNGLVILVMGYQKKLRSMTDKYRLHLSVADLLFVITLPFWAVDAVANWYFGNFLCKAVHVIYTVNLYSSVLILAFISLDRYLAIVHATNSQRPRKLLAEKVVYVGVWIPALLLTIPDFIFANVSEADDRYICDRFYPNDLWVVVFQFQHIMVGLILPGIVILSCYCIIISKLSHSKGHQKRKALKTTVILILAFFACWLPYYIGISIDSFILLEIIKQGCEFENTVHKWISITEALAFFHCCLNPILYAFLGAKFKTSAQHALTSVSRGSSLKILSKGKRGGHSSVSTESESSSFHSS

IC50 [nM]	Substance
300	NUCC-388
1000	NUCC-392
1000	NUCC-54120
